Where two headings read alike, the source gives them in different places.
Experiments:
Phaedon cochleariae = test: Phaedon test (PHAECO spray treatment); format: in vivo; conditions: Chinese cabbage leaf discs, after 7 days; for pest or weed control at 100 g/ha: Phaedon cochleariae, foliar, 168 h, read-out: efficacy in %
Method: Phaedon Test ([…] Spray Treatment) Solvent: 78.0 parts by weight of acetone • • 1.5 parts by weight of dimethylformamide Emulsifier: 0.5 part by weight of alkylaryl polyglycol ether To produce an appropriate active ingredient formulation, 1 part by weight of active ingredient is mixed with the stated amounts of solvent and emulsifier, and the concentrate is diluted with emulsifier-containing water to the desired concentration. Leaf discs of Chinese cabbage (Brassica pekinensis) are sprayed with an active ingredient formulation of the desired concentration and, after drying, populated with larvae of the mustard beetle (Phaedon cochleariae). After 7 days, the efficacy in % is determined. 100% means that all of the beetle larvae have been killed; 0% means that none of the beetle larvae have been killed.

Spodoptera frugiperda = Spodoptera frugiperda test (SPODFR spray treatment); format: in vivo; conditions: maize leaf discs, after 7 days
Method: Spodoptera frugiperda Test (SPODFR Spray Treatment) Solvent: 78.0 parts by weight of acetone • • 1.5 parts by weight of dimethylformamide To produce an appropriate active ingredient formulation, 1 part by weight of active ingredient is mixed with the stated amounts of solvent and emulsifier, and the concentrate is diluted with emulsifier-containing water to the desired concentration. Leaf discs of maize (Zea mays) are sprayed with an active ingredient formulation of the desired concentration and, after drying, populated with caterpillars of the armyworm (Spodoptera frugiperda). After 7 days, the efficacy in % is determined 100% means that all of the caterpillars have been killed; 0% means that none of the caterpillars have been killed.

logP (HPLC-MS) = format: physicochemical
[1] = HPLC, reversed-phase column (C18), acidic range pH 2.7, acetonitrile (0.1% formic acid)/water gradient, 43° C., calibration with unbranched alkan-2-ones
[2] = HPLC, reversed-phase column (C18), acidic range pH 2.7, acetonitrile (0.1% formic acid)/water gradient, 43° C., calibration with unbranched alkan-2-ones, read-out: log p
[3] = HPLC, reversed-phase column (C18), 43° C., acidic range pH 2.7, EEC directive 79/831 Annex V.A8, two values = both regioisomers (G = N)

| log p (logP (HPLC-MS); [1]) | log p (logP (HPLC-MS); [3]) | SMILES | efficacy in % (Phaedon cochleariae; application rate 100 g/ha) [%] | efficacy in % (Spodoptera frugiperda; application rate 100 g/ha) [%] | also measured |
| --- | --- | --- | --- | --- | --- |
| 3.49 | – | Cc1cc2c(cc1C(=O)NC1(C#N)CC1)cc(C(=O)NC(c1cccc(C(F)(F)F)c1)C(F)(F)F)n2C (stereo not shown) [Compound 196] | 100 | 100 | – |
| 4.41 | – | CCn1c(C(=O)NC(c2cccc(C(F)(F)F)c2)C(F)(F)F)cc2cc(C(=O)NC(C#N)(CC)CC)c(Cl)cc21 (stereo not shown) [Compound 264] | 100 | – | – |
| 4.41 | – | CCn1c(C(=O)NC(c2cccc(C(F)(F)F)c2)C(F)(F)F)cc2cc(C(=O)NC3(C)CC3C)c(Cl)cc21 (stereo not shown) [Compound 266] | 100 | – | – |
| 4.30 | – | CCn1c(C(=O)NC(c2cccc(C(F)(F)F)c2)C(F)(F)F)cc2cc(C(=O)NC3(C(F)(F)F)CC3)c(Cl)cc21 (stereo not shown) [Compound 267] | 100 | 100 | – |
| 3.78 | – | CCn1c(C(=O)NC(c2cccc(C(F)(F)F)c2)C(F)(F)F)cc2cc(C(=O)NC(C)CC#N)c(Cl)cc21 (stereo not shown) [Compound 269] | 100 | – | – |
| 4.37 | – | CCn1c(C(=O)NC(c2cccc(C(F)(F)F)c2)C(F)(F)F)cc2cc(C(=O)NC(C#N)C(C)C)c(Cl)cc21 (stereo not shown) [Compound 270] | 100 | – | – |
| – | 4.13 | CC(C)Cn1c(C(=O)NC(c2cccc(C(F)(F)F)c2)C(F)(F)F)cc2cc(C(=O)NC3(C#N)CC3)c(Cl)cc21 (stereo not shown) [Compound 299] | 100 | 100 | – |
| – | 4.03 | CCn1c(C(=O)NC(c2ccc(F)c(C(F)(F)F)c2)C(F)(F)F)cc2cc(C(=O)NC(CF)CF)c(C)cc21 (stereo not shown) [Compound 306] | 100 | 83 | – |
| – | 3.81 | CCn1c(C(=O)NC(c2ccc3c(c2)OC(F)(F)O3)C(F)(F)F)cc2cc(C(=O)NC3CC3)c(C)cc21 (stereo not shown) [Compound 307] | 100 | 100 | – |
| – | 4.37 | CCn1c(C(=O)NC(c2cccc(C(F)(F)F)c2)C(F)(F)F)cc2cc(C(=O)NC(C#N)c3ccccc3)c(Cl)cc21 (stereo not shown) [Compound 318] | 100 | – | – |
| – | 2.76 | CCn1c(C(=O)NC(c2ccc(F)c(F)c2)C(F)(F)F)cc2cc(C(=O)NC(C)C[S+](C)[O-])c(C)cc21 (stereo not shown) [Compound 321] | – | – | – |
| – | 3.48 | C=Cn1c(C(=O)NC(c2cccc(C(F)(F)F)c2)C(F)(F)F)cc2cc(C(=O)NC3(C#N)CC3)ccc21 (stereo not shown) [Compound 324] | – | – | – |
| – | 4.16 | CCn1c(C(=O)NC(c2cccc(C(F)(F)F)c2)C(F)(F)F)cc2cc(C(=O)NC(C#N)(COC)COC)c(Cl)cc21 (stereo not shown) [Compound 325] | 100 | – | – |
| – | 3.36 | COC(=O)Cn1c(C(=O)NC(c2cccc(C(F)(F)F)c2)C(F)(F)F)cc2cc(C(=O)NC3(C#N)CC3)c(Cl)cc21 (stereo not shown) [Compound 326] | 100 | – | – |
| – | 4.29 | CCn1c(C(=O)NC(c2cc(Cl)c(F)c(Cl)c2)C(F)(F)F)cc2cc(C(=O)NC3CC3)c(Cl)cc21 (stereo not shown) [Compound 327] | – | – | – |
| – | 3.52 | CCn1c(C(=O)NC(c2ccc(F)c(F)c2)C(F)(F)F)cc2cc(C(=O)NC3CC3)c(Cl)cc21 (stereo not shown) [Compound 329] | – | – | – |
| – | 4.02 | CCn1c(C(=O)NC(c2cc(F)cc(C(F)(F)F)c2)C(F)(F)F)cc2cc(C(=O)NC3(C#N)CC3)c(C)cc21 (stereo not shown) [Compound 331] | – | – | – |
| – | 3.76 | CCn1c(C(=O)NC(c2ccc(F)c(C(F)(F)F)c2)C(F)(F)F)nc2cc(C(=O)NC3CC3)c(Br)cc21 (stereo not shown) [Compound 332] | – | – | – |

The next lines start with the molecule.

| SMILES | log p (logP (HPLC-MS); [1]) | log p (logP (HPLC-MS); [3]) | efficacy in % (Phaedon cochleariae; application rate 100 g/ha) [%] | efficacy in % (Spodoptera frugiperda; application rate 100 g/ha) [%] | also measured |
| --- | --- | --- | --- | --- | --- |
| Cn1c(C(=O)NC(c2cccc(C(F)(F)F)c2)C(F)(F)F)nc2cc(C(=O)NC3CC3)c(Cl)cc21 (stereo not shown) [Compound 1] | 3.4 | – | – | – | efficacy in % (Phaedon cochleariae; application rate 500 g/ha): 100%; efficacy in % (Spodoptera frugiperda; application rate 500 g/ha): 100% |
| CCNC(=O)c1cc2cc(C(=O)NC(c3ccc(F)c(C(F)(F)F)c3)C(F)(F)F)n(CC)c2cc1Cl (stereo not shown) [Compound 17] | 3.91 | – | 100 | 100 | – |
| CCn1c(C(=O)NC(c2cccc(C(F)(F)F)c2)C(F)(F)F)cc2cc(C(=O)NCC#N)c(Cl)cc21 (stereo not shown) [Compound 21] | 3.64 | – | 100 | – | – |
| CCn1c(C(=O)NC(c2cccc(C(F)(F)F)c2)C(F)(F)F)cc2cc(CNC(=O)C3CC3)c(C(F)(F)F)cc21 (stereo not shown) [Compound 23] | 4.37 | – | 100 | – | – |
| CCn1c(C(=O)NC(c2cccc(C(F)(F)F)c2)C(F)(F)F)cc2cc(CNC(=O)C3CC3)c(Cl)cc21 (stereo not shown) [Compound 24] | 4.19 | – | 100 | 100 | – |
| CCC(=O)NCc1cc2cc(C(=O)NC(c3cccc(C(F)(F)F)c3)C(F)(F)F)n(CC)c2cc1Cl (stereo not shown) [Compound 25] | 4.06 | – | 100 | 100 | – |
| CCn1c(C(=O)NC(c2cccc(C(F)(F)F)c2)C(F)(F)F)cc2cc(CNC(C)=O)c(Cl)cc21 (stereo not shown) [Compound 26, 5-(acetamidomethyl)-6-chloro-1-ethyl-N-{2,2,2-trifluoro-1-[3-(trifluoromethyl)phenyl]ethyl}-1H-indole-2-carboxamide] | – | – | – | – | pest or weed control at 100 g/ha (Phaedon cochleariae; application rate 100 g/ha): 100%; chromatographic logP (logP (HPLC-MS); [2]): 3.77; chromatographic logP (logP (HPLC-MS); HPLC-MS): 3.77 |
| CCn1c(C(=O)NC(c2cccc(C(F)(F)F)c2)C(F)(F)F)cc2cc(C(=O)NC3(C4CC4)CC3)c(Cl)cc21 (stereo not shown) [Compound 29] | 4.45 | – | 100 | 83 | – |
| CCn1c(C(=O)NC(c2cccc(C(F)(F)F)c2)C(F)(F)F)cc2cc(C(=O)NC3(CC)CC3)c(Cl)cc21 (stereo not shown) [Compound 30] | 4.45 | – | 100 | 83 | – |
| CCOC1(NC(=O)c2cc3cc(C(=O)NC(c4cccc(C(F)(F)F)c4)C(F)(F)F)n(CC)c3cc2Cl)CC1 (stereo not shown) [Compound 31] | 4.19 | – | 100 | 100 | – |
| C#CC1(NC(=O)c2cc3cc(C(=O)NC(c4cccc(C(F)(F)F)c4)C(F)(F)F)n(CC)c3cc2Cl)CCC1 (stereo not shown) [Compound 33] | 4.20 | – | 100 | – | – |
| CCOC(=O)C1(NC(=O)c2cc3cc(C(=O)NC(c4cccc(C(F)(F)F)c4)C(F)(F)F)n(CC)c3cc2Cl)CC1 (stereo not shown) [Compound 34] | 3.99 | – | 100 | 83 | – |
| Cn1c(C(=O)NC(c2cccc(C(F)(F)F)c2)C(F)(F)F)cc2cc(C(=O)NC3(C#N)CC3)c(Cl)cc21 (stereo not shown) [Compound 44] | 3.55 | – | 100 | 100 | – |
| Cn1c(C(=O)NC(c2cccc(Cl)c2)C(F)(F)F)cc2cc(C(=O)NC3CC3)c(Cl)cc21 (stereo not shown) [Compound 45] | 3.33 | – | 100 | 100 | – |
| C#CCn1c(C(=O)NC(c2cccc(C(F)(F)F)c2)C(F)(F)F)nc2cc(C(=O)NC3CC3)c(Cl)cc21 (stereo not shown) [Compound 91] | 3.55 | – | 100 | 100 | – |
| CCn1c(C(=O)NC(c2cccc(C(F)(F)F)c2)C(F)(F)F)c(Cl)c2cc(C(=O)NC3(C#N)CC3)c(Cl)cc21 (stereo not shown) [Compound 271, 3,6-dichloro-N^5-(1-cyanocyclopropyl)-1-ethyl-N^2-{2,2,2-trifluoro-1-[3-(trifluoromethyl)phenyl]ethyl}-1H-indole-2,5-dicarboxamide] | – | – | – | – | pest or weed control at 100 g/ha (Phaedon cochleariae; application rate 100 g/ha): 100%; chromatographic logP (logP (HPLC-MS); [2]): 3.95; chromatographic logP (logP (HPLC-MS); HPLC-MS): 3.95 |
| O=C(NC1CC1)c1cc2nc(C(=O)NC(c3cccc(C(F)(F)F)c3)C(F)(F)F)n(CC3CC3)c2cc1Cl (stereo not shown) [Compound 322] | – | – | 100 | 100 | – |

— US9107411B2, “Indolecarboxamides and benzimidazolecarboxamides as insecticides and acaricides” (BAYER INTELLECTUAL PROPERTY GMBH, priority 2011, dated 2015)
